Assay results taken from ChEMBL document CHEMBL6153137, “Design, Synthesis, and Biological Evaluation of Novel Orally Available Covalent CDK12/13 Dual Inhibitors for the Treatment of Tumors” (J Med Chem, 2025).
The source made the active and inactive calls. No cut-off for these calls is given here.

Key:
[1] = Toxicity against female Sprague-Dawley rat assessed as effect on red blood cells level at 7.5 to 30 mg/kg, po administered once daily via gavage for 28 days and measured on day 29; assay type: organism-based; conditions: in vivo, 696 h, dose 7.5-30 mg/kg, time 29 day
[2] = Toxicity against male Sprague-Dawley rat assessed as body weight loss at 40 mg/kg, po administered once daily via gavage for 28 days and measured twice a week; assay type: organism-based; conditions: in vivo, 672 h, time 28 day
[3] = Toxicity against Sprague-Dawley rat assessed as abnormalities at 1 mg/kg, iv measured for 24 hrs; assay type: organism-based; conditions: in vivo
[4] = Toxicity against female Sprague-Dawley rat assessed as decrease in thymus volume at 7.5 to 30 mg/kg, po administered once daily via gavage for 28 days and measured on day 29; assay type: organism-based; conditions: in vivo, 696 h, dose 7.5-30 mg/kg, time 29 day
[5] = target: CDK12/Cyclin K (Homo sapiens) (UniProt O75909+Q9NYV4); test: Irreversible covalent binding affinity to CDK12/CyclinK (unknown origin) at Cys1039 residue assessed as 1:1 complex formation at 5 uM measured after 3 hrs by peptide mapping based mass spectrometric analysis; assay type: protein-complex assay
Sequence of CDK12/Cyclin K (Homo sapiens) (O75909 whole entry, looked up): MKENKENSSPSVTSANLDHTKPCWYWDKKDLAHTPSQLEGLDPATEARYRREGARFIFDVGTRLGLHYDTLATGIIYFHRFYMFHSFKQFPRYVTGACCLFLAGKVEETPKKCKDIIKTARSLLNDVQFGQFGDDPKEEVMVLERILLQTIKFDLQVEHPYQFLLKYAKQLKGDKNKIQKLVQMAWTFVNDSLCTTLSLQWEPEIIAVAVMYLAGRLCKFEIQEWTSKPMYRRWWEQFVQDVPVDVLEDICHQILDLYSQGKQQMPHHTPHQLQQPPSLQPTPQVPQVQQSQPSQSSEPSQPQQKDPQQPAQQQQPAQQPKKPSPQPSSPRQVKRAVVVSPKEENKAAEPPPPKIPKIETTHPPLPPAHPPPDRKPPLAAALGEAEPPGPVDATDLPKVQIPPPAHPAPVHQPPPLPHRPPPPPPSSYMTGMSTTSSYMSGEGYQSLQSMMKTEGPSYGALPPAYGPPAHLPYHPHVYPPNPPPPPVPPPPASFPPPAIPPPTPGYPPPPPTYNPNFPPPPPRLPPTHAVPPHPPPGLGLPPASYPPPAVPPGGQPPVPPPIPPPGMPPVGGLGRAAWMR
Sequence of CDK12/Cyclin K (Homo sapiens) (Q9NYV4 whole entry, looked up): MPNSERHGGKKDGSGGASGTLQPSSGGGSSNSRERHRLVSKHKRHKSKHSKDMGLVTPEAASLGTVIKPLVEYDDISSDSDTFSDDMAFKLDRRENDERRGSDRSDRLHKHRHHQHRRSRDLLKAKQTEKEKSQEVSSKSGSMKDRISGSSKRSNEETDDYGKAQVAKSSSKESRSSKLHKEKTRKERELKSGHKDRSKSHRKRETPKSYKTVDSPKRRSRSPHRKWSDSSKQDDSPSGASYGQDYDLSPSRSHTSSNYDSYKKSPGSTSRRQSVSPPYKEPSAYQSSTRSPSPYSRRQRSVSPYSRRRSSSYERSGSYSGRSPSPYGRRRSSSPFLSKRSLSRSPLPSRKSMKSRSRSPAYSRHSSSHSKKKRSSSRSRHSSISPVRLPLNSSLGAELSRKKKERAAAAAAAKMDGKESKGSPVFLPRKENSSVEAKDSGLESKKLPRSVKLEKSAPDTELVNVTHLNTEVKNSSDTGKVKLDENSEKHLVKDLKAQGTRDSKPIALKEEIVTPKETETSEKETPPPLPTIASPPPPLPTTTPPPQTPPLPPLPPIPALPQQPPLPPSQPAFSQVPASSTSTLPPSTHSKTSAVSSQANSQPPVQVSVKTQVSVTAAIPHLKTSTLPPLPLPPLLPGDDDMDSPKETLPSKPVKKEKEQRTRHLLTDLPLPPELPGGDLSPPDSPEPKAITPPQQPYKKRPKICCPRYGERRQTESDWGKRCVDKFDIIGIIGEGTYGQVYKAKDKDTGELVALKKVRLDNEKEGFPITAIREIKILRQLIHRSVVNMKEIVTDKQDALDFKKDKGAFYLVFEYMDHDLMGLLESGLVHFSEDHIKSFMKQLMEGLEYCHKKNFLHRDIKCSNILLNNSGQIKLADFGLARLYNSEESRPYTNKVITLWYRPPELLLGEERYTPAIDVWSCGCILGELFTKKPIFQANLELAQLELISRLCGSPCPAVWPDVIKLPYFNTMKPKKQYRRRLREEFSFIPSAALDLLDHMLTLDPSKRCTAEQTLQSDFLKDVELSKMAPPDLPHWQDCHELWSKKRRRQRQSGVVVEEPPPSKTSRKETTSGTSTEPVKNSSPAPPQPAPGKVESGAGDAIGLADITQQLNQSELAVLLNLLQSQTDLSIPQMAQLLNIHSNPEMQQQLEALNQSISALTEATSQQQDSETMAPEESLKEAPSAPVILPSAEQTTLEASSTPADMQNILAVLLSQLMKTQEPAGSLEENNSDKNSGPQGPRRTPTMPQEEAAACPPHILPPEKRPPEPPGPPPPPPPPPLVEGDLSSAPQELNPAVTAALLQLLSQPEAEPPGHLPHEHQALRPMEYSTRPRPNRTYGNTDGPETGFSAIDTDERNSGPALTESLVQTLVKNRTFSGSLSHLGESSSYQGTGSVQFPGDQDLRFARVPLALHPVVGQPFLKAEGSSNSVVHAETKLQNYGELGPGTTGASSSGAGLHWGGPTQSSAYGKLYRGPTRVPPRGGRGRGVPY

HEP Sf9 = test: Inhibition of human recombinant N-terminal GST-tagged CDK4/C-terminal 6XHis-tagged Cyclin D3 S259A mutant expressed in HEP Sf9 cells using ATP as substrate at 2 uM measured after 60 mins by ADP-Glo reagent based luminescence assay
Cytochrome P450 2C19 = Cytochrome P450 2C19 (Homo sapiens, UniProt P33261); test: Inhibition of CYP2C19 in human liver microsomes assessed as inhibition of S-mephenytoin-4-hydroxylation incubated for 10 mins in presence of NADPH by LC-MS/MS analysis; assay type: ADME, Microsome
Sequence of Cytochrome P450 2C19 (P33261 whole entry): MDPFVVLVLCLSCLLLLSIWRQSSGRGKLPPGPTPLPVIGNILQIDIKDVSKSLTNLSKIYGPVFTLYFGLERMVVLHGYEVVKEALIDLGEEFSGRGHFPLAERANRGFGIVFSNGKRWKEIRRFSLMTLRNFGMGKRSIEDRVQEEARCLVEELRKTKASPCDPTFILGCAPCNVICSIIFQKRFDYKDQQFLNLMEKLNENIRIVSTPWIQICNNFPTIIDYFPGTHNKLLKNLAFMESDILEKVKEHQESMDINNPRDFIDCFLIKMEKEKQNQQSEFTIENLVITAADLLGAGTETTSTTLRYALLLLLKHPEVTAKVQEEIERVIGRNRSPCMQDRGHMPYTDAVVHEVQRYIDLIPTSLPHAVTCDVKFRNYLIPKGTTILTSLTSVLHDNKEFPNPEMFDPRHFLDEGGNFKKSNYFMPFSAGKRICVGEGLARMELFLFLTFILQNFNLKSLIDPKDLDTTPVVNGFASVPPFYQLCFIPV

[6] = Half life in male Sprague-Dawley rat at 40 mg/kg, po administered once daily via gavage for 28 days; assay type: ADME, organism-based; conditions: in vivo, time 28 day
[7] = Half life in Sprague-Dawley rat at 5 mg/kg, po measured for 24 hrs by LC-MS/MS analysis; assay type: ADME, organism-based; conditions: in vivo
Cytochrome P450 3A4 = Cytochrome P450 3A4 (Homo sapiens, UniProt P08684); test: Inhibition of CYP3A4 in human liver microsomes assessed as inhibition of midazolam-1'-hydroxylation incubated for 10 mins in presence of NADPH by LC-MS/MS analysis; assay type: ADME, Microsome
Sequence of Cytochrome P450 3A4 (P08684 whole entry): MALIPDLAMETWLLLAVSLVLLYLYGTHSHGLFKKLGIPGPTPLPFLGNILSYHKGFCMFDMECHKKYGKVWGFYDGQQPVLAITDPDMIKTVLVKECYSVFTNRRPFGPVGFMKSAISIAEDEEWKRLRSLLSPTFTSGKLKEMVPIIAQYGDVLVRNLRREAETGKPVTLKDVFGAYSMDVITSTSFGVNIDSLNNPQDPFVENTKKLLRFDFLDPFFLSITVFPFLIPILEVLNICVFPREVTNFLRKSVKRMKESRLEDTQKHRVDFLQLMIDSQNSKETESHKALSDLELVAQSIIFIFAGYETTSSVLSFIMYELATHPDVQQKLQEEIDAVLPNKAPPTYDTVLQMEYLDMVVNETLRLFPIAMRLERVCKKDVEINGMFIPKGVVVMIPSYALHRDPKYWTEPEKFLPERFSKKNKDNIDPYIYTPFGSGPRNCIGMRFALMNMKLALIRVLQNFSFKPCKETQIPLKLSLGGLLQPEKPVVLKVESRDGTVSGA

[8] = Toxicity against male Sprague-Dawley rat assessed as soft feces at 40 mg/kg, po administered once daily via gavage for 28 days; assay type: organism-based; conditions: in vivo, 672 h, time 28 day
[9] = Toxicity against female Sprague-Dawley rat assessed as effect on monocytes level at 7.5 to 30 mg/kg, po administered once daily via gavage for 28 days and measured on day 29; assay type: organism-based; conditions: in vivo, 696 h, dose 7.5-30 mg/kg, time 29 day
[10] = GSH reactivity assessed as half life to adduct formation at 10 uM by LC-MS/MS analysis; assay type: physicochemical
[11] = Cmax in male Sprague-Dawley rat at 20 mg/kg, po administered via gavage and measured on day 1; assay type: ADME, organism-based; conditions: in vivo, time 1 day
[12] = Toxicity against female Sprague-Dawley rat assessed as effect on hemoglobin level at 7.5 to 30 mg/kg, po administered once daily via gavage for 28 days and measured on day 29; assay type: organism-based; conditions: in vivo, 696 h, dose 7.5-30 mg/kg, time 29 day
MDA-MB-231 = test: Antiproliferative activity against human MDA-MB-231 cells assessed as reduction in cell viability incubated for 7 days by CellTiter-Glo reagent based luminescence analysis; assay type: functional; conditions: MDA-MB-231, 168 h
[13] = target: Cyclin-dependent kinase 12/13 (Homo sapiens) (UniProt Q14004+Q9NYV4); test: Inhibition of CDK12/13 in human SUM149PT cells assessed as reduction in level of phosphorylation of Ser2 on RNA Pol II CTD at 250 to 1000 nM by western blot analysis; assay type: cell-based; conditions: dose 250-1000 nM, time lower 1.0 hrs, time upper […]
[14] = Toxicity against male Sprague-Dawley rat assessed as effect on AST level in blood at 10 to 40 mg/kg, po administered once daily via gavage for 28 days and measured on day 29; assay type: organism-based; conditions: in vivo, 696 h, dose 10-40 mg/kg, time 29 day
[15] = AUC (0 to infinity) in Sprague-Dawley rat at 50 mg/kg, po by LC-MS/MS analysis; assay type: ADME, organism-based; conditions: in vivo
[16] = Half life in Sprague-Dawley rat at 15 mg/kg, po measured for 24 hrs by LC-MS/MS analysis; assay type: ADME, organism-based; conditions: in vivo
[17] = Toxicity against male Sprague-Dawley rat assessed as effect on mean corpuscular volume at 10 to 40 mg/kg, po administered once daily via gavage for 28 days and measured on day 29; assay type: organism-based; conditions: in vivo, 696 h, dose 10-40 mg/kg, time 29 day
Mus musculus = test: In vivo inhibition of CDK12/13 in Balb/c mouse xenografted with human SUM149PT cells assessed as reduction in phosphorylation of Ser2 on RNA Pol II at 15 to 30 mg/kg, po administered once daily via gavage and measured at 4 hrs post-last drug dosage by western blot analysis; assay type: functional, organism-based; conditions: dose 15-30 mg/kg
[18] = Cmax in Sprague-Dawley rat at 150 mg/kg, po measured for 24 hrs by LC-MS/MS analysis; assay type: ADME, organism-based; conditions: in vivo
MV4-11 [19] = test: Antitumor activity against human MV4-11 cells xenografted in Balb/c nude mouse assessed as inhibition of tumor growth at 15 mg/kg, po administered once daily via gavage and measured on day 21; assay type: functional; conditions: MV4-11, 504 h, time 21 day, read-out: TGI
[20] = target: Cyclin-dependent kinase 7 (Homo sapiens) (UniProt P50613); test: Inhibition of CDK7 in human SUM149PT cells assessed as reduction in level of phosphorylation of Ser5 on RNA Pol II CTD at 500 nM incubated for 12 hrs followed by drug wash-out and measured after 72 hrs by western blot analysis; assay type: cell-based
Sequence of Cyclin-dependent kinase 7 (Homo sapiens) (P50613 whole entry): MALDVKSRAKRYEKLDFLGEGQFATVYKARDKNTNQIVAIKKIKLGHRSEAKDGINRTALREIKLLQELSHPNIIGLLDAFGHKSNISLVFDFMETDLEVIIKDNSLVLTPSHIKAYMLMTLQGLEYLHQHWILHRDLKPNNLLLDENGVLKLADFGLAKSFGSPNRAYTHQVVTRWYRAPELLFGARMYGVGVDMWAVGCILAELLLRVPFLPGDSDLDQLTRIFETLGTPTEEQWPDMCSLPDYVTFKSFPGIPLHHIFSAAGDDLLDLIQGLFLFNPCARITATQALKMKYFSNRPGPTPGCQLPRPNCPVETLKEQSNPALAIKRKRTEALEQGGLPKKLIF

[21] = Cmax in male Sprague-Dawley rat at 20 mg/kg, po administered once daily via gavage for 28 days; assay type: ADME, organism-based; conditions: in vivo, time 28 day
[22] = Cmax in male Sprague-Dawley rat at 40 mg/kg, po administered via gavage and measured on day 1; assay type: ADME, organism-based; conditions: in vivo, time 1 day
[23] = Toxicity against female Sprague-Dawley rat assessed as effect on sodium level in blood at 7.5 to 30 mg/kg, po administered once daily via gavage for 28 days and measured on day 29; assay type: organism-based; conditions: in vivo, 696 h, dose 7.5-30 mg/kg, time 29 day
[24] = Half life in male Sprague-Dawley rat at 10 mg/kg, po administered once daily via gavage for 28 days; assay type: ADME, organism-based; conditions: in vivo, time 28 day
[25] = Volume of distribution at steady state in CD-1 mouse at 1 mg/kg, iv measured for 24 hrs by LC-MS/MS analysis; assay type: ADME, organism-based; conditions: in vivo, read-out: Vdss
[26] = Toxicity against male Sprague-Dawley rat assessed as effect on monocytes level at 10 to 40 mg/kg, po administered once daily via gavage for 28 days and measured on day 29; assay type: organism-based; conditions: in vivo, 696 h, dose 10-40 mg/kg, time 29 day
[27] = Toxicity against Sprague-Dawley rat assessed as abnormalities at 5 to 15 mg/kg, po measured for 24 hrs; assay type: organism-based; conditions: in vivo, dose 5-15 mg/kg
[28] = AUC(0 to t) in male Sprague-Dawley rat at 10 mg/kg, po administered once daily via gavage for 28 days; assay type: ADME, organism-based; conditions: in vivo, 672 h, time 28 day
MV4-11 [29] = test: Antiproliferative activity against human MV4-11 cells assessed as reduction in cell viability incubated for 7 days by CellTiter-Glo reagent based luminescence analysis; assay type: functional; conditions: MV4-11, 168 h

Activity [5]: Active | IC50 (Cytochrome P450 2C19): > 50000 nM | half-life [6]: 6.9 h | half-life [7]: 0.8 h | IC50 (Cytochrome P450 3A4): > 50000 nM | t1/2 [10]: 1.38 h | Cmax [11]: 1070 ng/mL | IC50 (MDA-MB-231): 58 nM | inhibition [13]: Time-dependent-effect | AUC(0-inf) [15]: 6690 ng·h/mL | half-life [16]: 1.81 h | Cmax [18]: 3760 ng/mL | inhibition [20]: inactive | Cmax [21]: 793 ng/mL | Cmax [22]: 1660 ng/mL | half-life [24]: 3.5 h | Vd [25]: 0.87 L/kg | AUCt [28]: 1330 ng·h/mL | IC50 (MV4-11 [29]): 84 nM
Compound: C=CC(=O)N1CCc2c(ncnc2N2CC[C@@H](Nc3ncc(Cl)c(OC)n3)C2)C1
Activity [1]: Non-toxic | Activity [2]: Toxic | Activity [3]: Non-toxic | Activity [4]: Toxic | inhibition (HEP Sf9): 68% | Activity [8]: Toxic | Activity [9]: Non-toxic | Activity [12]: Non-toxic | Activity [14]: Non-toxic | Activity [17]: Non-toxic | inhibition (Mus musculus): Active | inhibition in vivo at 15 mg/kg (MV4-11 [19]): 31% | Activity [23]: Non-toxic | Activity [26]: Non-toxic | Activity [27]: Non-toxic
